{"source": "ChEMBL document CHEMBL1201862", "about": "“PubChem BioAssay data set” (2004)", "key": {"HeLa": {"test_system": "HeLa", "experiment": "HeLa cell cytotoxicity, dose response, cytotoxicity control, 24 h, cherry-picked samples (AID 504726);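 further: potency for cytotoxicity as loss of luminescence signal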", "format": "functional, cell-based", "settings": "Homo sapiens"}, "[1]": {"experiment": "growth suppression of beta-catenin-knockout colon cells, dose response, cell-based, HCT116, human colon tumor (AID 1045);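 further: cells exposed to compound for 60 hours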", "format": "functional"}, "[2]": {"target": "T1, Heat shock factor protein 1 (Mus musculus, UniProt P38532)", "T1 sequence (P38532 whole entry)": "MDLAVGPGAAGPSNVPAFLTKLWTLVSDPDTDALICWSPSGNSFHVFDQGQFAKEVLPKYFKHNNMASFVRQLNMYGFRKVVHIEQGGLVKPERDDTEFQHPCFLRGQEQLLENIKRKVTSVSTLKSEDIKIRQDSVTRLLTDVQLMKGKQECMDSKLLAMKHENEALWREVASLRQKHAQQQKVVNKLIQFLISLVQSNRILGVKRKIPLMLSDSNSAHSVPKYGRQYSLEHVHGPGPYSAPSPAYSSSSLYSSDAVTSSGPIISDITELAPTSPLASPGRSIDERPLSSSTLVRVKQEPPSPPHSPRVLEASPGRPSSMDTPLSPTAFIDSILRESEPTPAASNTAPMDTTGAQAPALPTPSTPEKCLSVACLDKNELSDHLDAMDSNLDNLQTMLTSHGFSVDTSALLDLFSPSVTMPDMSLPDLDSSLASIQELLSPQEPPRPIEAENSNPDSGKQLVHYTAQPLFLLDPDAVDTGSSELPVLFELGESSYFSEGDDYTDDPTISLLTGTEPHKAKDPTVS", "experiment": "HSF1 potentiators in luciferase reporter cells, confirmation, cell-based, NIH3T3, luminescence, dose retest (AID 435004);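 further: stress induced by proteasome inhibitor MG132 added 30 min after compound; actives raise luminescence as potentiators of the MG132 stress response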", "format": "functional"}, "ORF 73": {"target": "ORF 73 (Human herpesvirus 8, UniProt O40947)", "sequence (O40947 whole entry)": "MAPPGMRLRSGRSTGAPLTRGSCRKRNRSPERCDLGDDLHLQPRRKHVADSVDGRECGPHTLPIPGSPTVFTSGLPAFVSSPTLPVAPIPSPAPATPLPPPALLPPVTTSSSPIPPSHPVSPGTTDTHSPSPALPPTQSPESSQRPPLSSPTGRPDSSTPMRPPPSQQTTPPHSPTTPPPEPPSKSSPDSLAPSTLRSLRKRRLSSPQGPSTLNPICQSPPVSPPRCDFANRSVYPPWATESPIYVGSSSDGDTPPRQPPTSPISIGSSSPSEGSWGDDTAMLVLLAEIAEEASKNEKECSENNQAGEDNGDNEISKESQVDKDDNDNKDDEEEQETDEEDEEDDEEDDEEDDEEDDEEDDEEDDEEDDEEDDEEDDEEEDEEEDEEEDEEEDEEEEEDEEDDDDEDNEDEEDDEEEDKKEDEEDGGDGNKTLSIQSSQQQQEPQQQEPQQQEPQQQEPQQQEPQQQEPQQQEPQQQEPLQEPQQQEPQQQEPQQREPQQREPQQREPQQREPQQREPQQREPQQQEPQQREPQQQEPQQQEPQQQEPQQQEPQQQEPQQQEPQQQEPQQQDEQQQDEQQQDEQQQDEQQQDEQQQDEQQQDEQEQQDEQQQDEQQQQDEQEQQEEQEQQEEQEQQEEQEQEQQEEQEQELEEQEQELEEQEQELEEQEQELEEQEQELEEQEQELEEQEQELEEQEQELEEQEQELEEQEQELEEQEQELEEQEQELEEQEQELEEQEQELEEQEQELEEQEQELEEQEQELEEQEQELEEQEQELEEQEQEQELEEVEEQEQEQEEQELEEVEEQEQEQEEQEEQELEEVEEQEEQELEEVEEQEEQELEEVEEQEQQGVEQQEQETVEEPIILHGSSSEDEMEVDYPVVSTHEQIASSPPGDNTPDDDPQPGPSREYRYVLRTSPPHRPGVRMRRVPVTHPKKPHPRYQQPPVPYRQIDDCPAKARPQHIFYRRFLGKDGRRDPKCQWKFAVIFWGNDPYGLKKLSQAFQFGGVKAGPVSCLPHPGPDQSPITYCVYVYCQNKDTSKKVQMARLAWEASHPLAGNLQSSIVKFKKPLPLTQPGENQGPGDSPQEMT", "experiment": "inhibitors of C-LANA binding to LBS DNA, dose response, biochemical, fluorescence polarization, cherry-picked samples (AID 504725);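 further: fluorescence polarization of a labeled DNA duplex reporting LANA DNA binding; potency is for inhibitors that block LANA binding to the DNA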", "parameters": "species or system Human gammaherpesvirus 8"}, "[3]": {"experiment": "growth suppression of PTEN-null colon cells, dose response, cell-based, HCT116 PTEN knockout (AID 1047);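 further: cells exposed to compound for 60 hours before readout; potency for loss of cell viability measured by luminescence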", "format": "functional"}, "Bcl-2-like protein 10": {"target": "Bcl-2-like protein 10 (Homo sapiens, UniProt Q9HD36)", "sequence (Q9HD36 whole entry)": "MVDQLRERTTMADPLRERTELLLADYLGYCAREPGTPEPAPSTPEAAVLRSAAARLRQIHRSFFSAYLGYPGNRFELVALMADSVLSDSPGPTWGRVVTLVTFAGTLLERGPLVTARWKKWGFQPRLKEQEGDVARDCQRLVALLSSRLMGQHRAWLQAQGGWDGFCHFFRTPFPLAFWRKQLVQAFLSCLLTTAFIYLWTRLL", "experiment": "displacers of TR3 peptide from Bcl-B, primary screen, selectivity assay for Bfl-1 inhibitor project, biochemical, fluorescence polarization, FITC-TR3 peptide (AID 748);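 further: fluorescence polarization from a fluorescein-labelled TR3 peptide binding purified Bcl-B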"}, "Cytochrome P450 2C19": {"target": "Cytochrome P450 2C19 (Homo sapiens, UniProt P33261)", "sequence (P33261 whole entry)": "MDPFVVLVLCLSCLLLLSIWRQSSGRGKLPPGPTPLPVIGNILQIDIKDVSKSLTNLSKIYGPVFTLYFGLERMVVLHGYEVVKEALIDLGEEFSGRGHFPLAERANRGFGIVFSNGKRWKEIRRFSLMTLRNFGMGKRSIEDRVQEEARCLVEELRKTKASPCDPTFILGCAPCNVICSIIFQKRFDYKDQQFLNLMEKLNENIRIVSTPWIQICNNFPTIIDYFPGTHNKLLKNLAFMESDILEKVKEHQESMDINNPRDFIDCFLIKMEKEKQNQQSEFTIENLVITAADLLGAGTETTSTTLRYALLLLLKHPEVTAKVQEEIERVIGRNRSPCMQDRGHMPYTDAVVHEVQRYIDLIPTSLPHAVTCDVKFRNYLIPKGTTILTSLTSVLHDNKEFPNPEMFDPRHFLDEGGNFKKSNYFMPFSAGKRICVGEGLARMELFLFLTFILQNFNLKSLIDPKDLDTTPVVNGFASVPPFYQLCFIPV", "experiment": "Cytochrome panel assay with activity outcomes. Panel member name: p450-cyp2c19 Compounds with AC50 equal or less than 10 uM are considered active", "format": "functional", "settings": "read-out: AC50"}, "[4]": {"target": "T2, Replicative DNA helicase DnaB (Mycobacterium tuberculosis, UniProt P9WMR3)", "T2 sequence (P9WMR3 whole entry)": "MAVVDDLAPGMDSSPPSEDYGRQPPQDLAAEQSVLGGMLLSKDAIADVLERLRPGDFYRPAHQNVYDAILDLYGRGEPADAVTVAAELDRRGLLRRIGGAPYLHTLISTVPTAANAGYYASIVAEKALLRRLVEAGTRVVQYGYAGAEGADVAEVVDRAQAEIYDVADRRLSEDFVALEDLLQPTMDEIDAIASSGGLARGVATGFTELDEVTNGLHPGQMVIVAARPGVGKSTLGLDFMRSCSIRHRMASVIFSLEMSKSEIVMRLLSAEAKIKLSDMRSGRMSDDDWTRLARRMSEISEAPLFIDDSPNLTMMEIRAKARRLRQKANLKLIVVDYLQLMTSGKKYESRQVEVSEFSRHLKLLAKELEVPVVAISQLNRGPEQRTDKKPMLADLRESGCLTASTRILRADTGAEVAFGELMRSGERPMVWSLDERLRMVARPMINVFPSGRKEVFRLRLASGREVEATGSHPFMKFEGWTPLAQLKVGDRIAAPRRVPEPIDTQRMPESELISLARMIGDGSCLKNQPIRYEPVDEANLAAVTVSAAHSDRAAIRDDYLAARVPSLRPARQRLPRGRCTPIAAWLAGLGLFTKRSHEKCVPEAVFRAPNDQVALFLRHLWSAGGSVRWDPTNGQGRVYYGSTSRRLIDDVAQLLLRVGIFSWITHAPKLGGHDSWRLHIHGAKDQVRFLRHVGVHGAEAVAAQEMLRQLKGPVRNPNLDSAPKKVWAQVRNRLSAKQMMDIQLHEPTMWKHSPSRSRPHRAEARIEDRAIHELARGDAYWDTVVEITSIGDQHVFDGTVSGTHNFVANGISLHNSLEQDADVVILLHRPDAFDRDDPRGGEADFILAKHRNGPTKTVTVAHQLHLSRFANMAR", "experiment": "DnaB intein splicing inhibitors, dose response, biochemical, cell-free fluorescence (AID 449749)", "format": "functional"}, "Cytochrome P450 2D6": {"target": "Cytochrome P450 2D6 (Homo sapiens, UniProt P10635)", "sequence (P10635 whole entry)": "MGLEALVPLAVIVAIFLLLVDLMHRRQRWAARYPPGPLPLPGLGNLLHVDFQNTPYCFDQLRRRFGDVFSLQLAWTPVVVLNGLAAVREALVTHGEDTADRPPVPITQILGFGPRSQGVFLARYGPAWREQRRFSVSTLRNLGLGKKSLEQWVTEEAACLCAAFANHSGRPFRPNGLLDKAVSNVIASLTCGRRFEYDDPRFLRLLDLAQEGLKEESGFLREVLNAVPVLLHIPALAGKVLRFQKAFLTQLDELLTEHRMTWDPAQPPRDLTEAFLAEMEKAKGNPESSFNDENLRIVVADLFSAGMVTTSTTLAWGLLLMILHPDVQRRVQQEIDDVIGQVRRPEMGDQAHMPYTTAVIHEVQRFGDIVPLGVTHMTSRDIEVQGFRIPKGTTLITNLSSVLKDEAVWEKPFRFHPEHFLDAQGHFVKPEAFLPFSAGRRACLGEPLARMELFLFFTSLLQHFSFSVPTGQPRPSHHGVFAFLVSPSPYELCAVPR"}, "Protein RecA": {"target": "T3, Protein RecA (Mycobacterium tuberculosis, UniProt P9WHJ3)", "T3 sequence (P9WHJ3 whole entry)": "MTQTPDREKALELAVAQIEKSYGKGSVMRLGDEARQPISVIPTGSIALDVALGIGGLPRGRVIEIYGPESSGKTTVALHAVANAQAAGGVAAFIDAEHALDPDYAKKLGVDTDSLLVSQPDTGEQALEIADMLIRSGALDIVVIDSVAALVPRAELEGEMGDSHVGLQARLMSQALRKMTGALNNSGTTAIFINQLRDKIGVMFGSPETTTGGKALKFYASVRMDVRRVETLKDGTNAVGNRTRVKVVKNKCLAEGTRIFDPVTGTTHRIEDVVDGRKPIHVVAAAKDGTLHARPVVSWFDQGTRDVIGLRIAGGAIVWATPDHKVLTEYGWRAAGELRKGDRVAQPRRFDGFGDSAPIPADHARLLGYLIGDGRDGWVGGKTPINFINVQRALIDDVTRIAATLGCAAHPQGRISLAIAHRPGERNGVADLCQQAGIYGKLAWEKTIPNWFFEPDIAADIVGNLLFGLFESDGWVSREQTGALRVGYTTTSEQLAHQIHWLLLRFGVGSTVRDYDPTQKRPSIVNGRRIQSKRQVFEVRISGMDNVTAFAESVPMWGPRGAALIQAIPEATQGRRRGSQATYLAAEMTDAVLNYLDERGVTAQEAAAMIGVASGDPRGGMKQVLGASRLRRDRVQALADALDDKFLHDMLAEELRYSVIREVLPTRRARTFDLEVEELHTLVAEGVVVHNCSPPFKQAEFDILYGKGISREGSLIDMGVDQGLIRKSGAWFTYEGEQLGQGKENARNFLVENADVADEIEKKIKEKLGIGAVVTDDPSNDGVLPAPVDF", "experiment": "Fluorescence Cell-Free Homogeneous Dose Retest to Identify Inhibitors of RecA-Intein Splicing Activity. [Related pubchem assays (depositor defined):AID2097, AID2223, AID489010, AID492950]", "format": "functional"}, "Cytochrome P450 3A4": {"target": "Cytochrome P450 3A4 (Homo sapiens, UniProt P08684)", "sequence (P08684 whole entry)": "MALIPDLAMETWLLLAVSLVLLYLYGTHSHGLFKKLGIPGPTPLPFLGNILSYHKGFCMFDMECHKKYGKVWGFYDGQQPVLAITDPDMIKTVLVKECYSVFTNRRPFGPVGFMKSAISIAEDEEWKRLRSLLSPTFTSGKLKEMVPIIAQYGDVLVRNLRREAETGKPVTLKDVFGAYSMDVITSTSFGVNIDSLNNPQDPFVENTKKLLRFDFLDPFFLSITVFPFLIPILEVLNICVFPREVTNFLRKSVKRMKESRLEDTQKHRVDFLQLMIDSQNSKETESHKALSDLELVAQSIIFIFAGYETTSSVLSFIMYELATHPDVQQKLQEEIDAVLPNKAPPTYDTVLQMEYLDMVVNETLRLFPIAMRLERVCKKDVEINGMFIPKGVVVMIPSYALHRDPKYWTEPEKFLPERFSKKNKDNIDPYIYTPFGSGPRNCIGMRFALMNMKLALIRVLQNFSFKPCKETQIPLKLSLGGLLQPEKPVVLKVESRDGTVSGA"}, "[5]": {"experiment": "Luminescence Cell-Based Dose Response HTS to Identify Inhibitors of 5'UTR Stem-Loop Driven Prion Protein mRNA Translation in H4 Neuroglioblastoma Cells. [Related pubchem assays: 1827 (Project Summary), 1813 (Primary HTS)]", "format": "functional"}, "[6]": {"experiment": "inhibitors of firefly luciferase expression or activity, dose response, H4 neuroglioma cells, luminescence (AID 1990)", "format": "functional, cell-based"}, "[7]": {"target": "G-protein coupled receptor 35 (Homo sapiens, UniProt Q9HC97)", "sequence (Q9HC97 whole entry)": "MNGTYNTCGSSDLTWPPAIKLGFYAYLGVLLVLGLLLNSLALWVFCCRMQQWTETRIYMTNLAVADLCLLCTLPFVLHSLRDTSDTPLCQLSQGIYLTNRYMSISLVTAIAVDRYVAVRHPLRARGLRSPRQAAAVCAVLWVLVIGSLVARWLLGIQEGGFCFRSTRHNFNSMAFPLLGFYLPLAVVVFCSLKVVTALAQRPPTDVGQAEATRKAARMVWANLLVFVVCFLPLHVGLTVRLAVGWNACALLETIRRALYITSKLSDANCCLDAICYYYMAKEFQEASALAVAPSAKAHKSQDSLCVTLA", "experiment": "GPR35 antagonists blocking zaprinast-driven arrestin recruitment, primary screen, imaging, U2OS, beta-arrestin-GFP, zaprinast agonist (AID 2058);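 further: antagonist potency meaning inhibition of agonist-induced arrestin redistribution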", "format": "functional"}, "[8]": {"experiment": "inhibitors of SNCA 5'UTR-driven reporter translation, confirmation, H4 neuroglioma cells, luminescence (AID 1988)", "format": "functional, cell-based"}, "[9]": {"target": "G-protein coupled receptor 55 (Homo sapiens, UniProt Q9Y2T6)", "sequence (Q9Y2T6 whole entry)": "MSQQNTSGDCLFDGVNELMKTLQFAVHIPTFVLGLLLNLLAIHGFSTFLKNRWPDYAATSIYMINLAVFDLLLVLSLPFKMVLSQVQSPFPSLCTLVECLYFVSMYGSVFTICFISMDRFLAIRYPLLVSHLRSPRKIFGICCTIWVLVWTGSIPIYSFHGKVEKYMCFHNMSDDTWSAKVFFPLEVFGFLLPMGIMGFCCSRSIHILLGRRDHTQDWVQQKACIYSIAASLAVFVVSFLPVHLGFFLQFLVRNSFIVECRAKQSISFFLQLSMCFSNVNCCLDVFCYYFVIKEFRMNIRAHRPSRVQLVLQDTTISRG", "experiment": "GPR55 antagonists blocking LPI-driven arrestin recruitment, primary screen, imaging, U2OS, beta-arrestin-GFP, LPI agonist (AID 2013);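 further: antagonist potency measured as reduced agonist-driven arrestin aggregation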", "format": "functional"}}, "note": "The source made the active and inactive calls.", "data": [{"smiles": "O=C(Nc1ccccc1F)C(=Cc1sc(N2CCOCC2)nc1-c1ccccc1)C(=O)Nc1ccccc1F", "values": [{"measurement": "AC50", "setting": "HeLa", "value": "292 µM (active)"}, {"measurement": "EC50", "setting": "[1]", "value": "9.63 µM (active)"}, {"measurement": "EC50", "setting": "[2]", "value": "> 260 µM (inactive)"}, {"measurement": "AC50", "setting": "ORF 73", "value": "16.4 µM (active)"}, {"measurement": "EC50", "setting": "[3]", "value": "11.9 µM (active)"}]}, {"smiles": "Cc1cnnn1-c1ccc(C(=O)CCl)cc1", "values": [{"measurement": "IC50", "setting": "Bcl-2-like protein 10", "value": "> 50 µM (inactive)"}, {"measurement": "AC50", "setting": "Cytochrome P450 2C19", "value": "39.8 µM (inconclusive)"}, {"measurement": "AC50", "setting": "[4]", "value": "29.1 µM (active)"}, {"measurement": "AC50", "setting": "Cytochrome P450 2D6", "value": "0.0794 µM (inconclusive)"}, {"measurement": "EC50", "setting": "Protein RecA", "value": "11.3 µM (active)"}, {"measurement": "AC50", "setting": "Cytochrome P450 3A4", "value": "25.1 µM (inconclusive)"}]}, {"smiles": "Oc1ccc(/C=N/Nc2nc(-c3ccccc3F)nc3ccccc23)c(O)c1", "values": [{"measurement": "EC50", "setting": "[5]", "value": "18.4 µM (active)"}, {"measurement": "EC50", "setting": "[6]", "value": "23.2 µM (active)"}, {"measurement": "IC50", "setting": "[7]", "value": "3.08 µM (active)"}, {"measurement": "EC50", "setting": "[8]", "value": "6.7 µM (active)"}, {"measurement": "IC50", "setting": "[9]", "value": "1.47 µM (active)"}]}]}
